Patent US20250144067A1, “PERSONALIZED STARVATION THERAPY FOR CANCER” (Faeth Therapeutics, Inc., priority 2021, published 2025)
Structures can show the parent of a compound that is named as a salt. Numbered stars: 1 amine (or outer) side, 2 acyl side, 3 side chain; on linkers, the order of the positions; unused ones are H or OH. Bridge positions count the residues as written; N and C are the ends. Square brackets hold non-standard residues; d marks the D form. Peptide text beside a SMILES is read from it. * marks the point of attachment. hTyr(3S-OH,4S-OH,3'-OSO3H) = N[C@H](C(=O)O)[C@H](O)[C@@H](O)c1ccc(O)c(OS(=O)(=O)O)c1; Orn(4R-OH,5R-OH) = O=C([C@H](C[C@@H](O)[C@@H](O)N[*:3])N[*:1])[*:2]; Pro(3S-OH,4S-Me) = C[C@H]1CN[C@H](C(=O)O)[C@H]1O; X1 = CCCCCOc1ccc(-c2cc(-c3ccc(C(=O)*)cc3)no2)cc1; Gln(3R-OH) = NC(=O)C[C@@H](O)[C@H](N)C(=O)O; Hyp = O=C(O)[C@@H]1C[C@@H](O)CN1

How the values were obtained:
[1] = system: NCI-H292 lung cancer cells; assay: FDA drug screening, complete media vs cholesterol-free media without statin (TABLE 1); type: cell-based, human
[2] = system: NCI-H292 lung cancer cells; assay: FDA drug screening, complete media vs cholesterol-free media with simvastatin (TABLE 2); type: cell-based, human; conditions: for Cholesterol-free media + simvastatin (0.04 μM) / Complete Media: NCI-H292 cells
[3] = NCI-H292 cells, cholesterol-free media without statin, FDA drug library screen
[4] = NCI-H292 cells, complete media, FDA drug library screen
[5] = FDA library drug in cholesterol-free media with simvastatin 0.04 μM
[6] = FDA library drug in complete media
[7] = complete media vs cholesterol-free media + simvastatin (0.04 μM), […]
[8] = complete vs cholesterol-free media, >0 enhanced anti-cancer activity, about 0 neutral, <0 antagonist
[9] = complete media vs cholesterol-free media + simvastatin (0.04 μM), >0 enhanced anti-cancer activity, about 0 neutral, <0 antagonist
[10] = Complete minus Cholesterol-free, greater than 0 enhanced anti-cancer activity, about 0 neutral, below 0 antagonist
[11] = NCI-H292 cells, FDA drug library screen, cholesterol-free media without statin
[12] = NCI-H292 cells, FDA drug library screen, complete media
[13] = FDA drug library screen, cholesterol-free media with simvastatin 0.04 μM
[14] = FDA drug library screen, complete media
[15] = NCI-H292 cells, cholesterol-free media without statin
[16] = complete vs cholesterol-free media, greater than 0 enhanced anti-cancer activity, about 0 neutral, below 0 antagonists
[17] = drug in cholesterol-free media with simvastatin 0.04 μM
[18] = Complete minus Cholesterol-free, >0 enhanced anti-cancer activity, about 0 neutral, <0 antagonist
[19] = cholesterol-free media with simvastatin 0.04 μM, cell growth value in FDA drug screen
[20] = complete media, cell growth value in FDA drug screen
[21] = complete media minus cholesterol-free media + simvastatin, >0 enhanced anti-cancer activity, about 0 neutral, <0 antagonist
[22] = cholesterol-free media with simvastatin 0.04 μM, FDA drug library screen (TABLE 2)
[23] = complete media, FDA drug library screen (TABLE 2)
[24] = complete media minus cholesterol-free media + simvastatin (0.04 μM), >0 enhanced anti-cancer activity, about 0 neutral, <0 antagonist

CCCCCOc1ccc(-c2cc(-c3ccc(C(=O)N[C@H]4C[C@@H](O)[C@@H](O)NC(=O)[C@@H]5[C@@H](O)[C@@H](C)CN5C(=O)[C@H]([C@H](O)CC(N)=O)NC(=O)[C@H]([C@H](O)[C@@H](O)c5ccc(O)c(OS(=O)(=O)O)c5)NC(=O)[C@@H]5C[C@@H](O)CN5C(=O)[C@H]([C@@H](C)O)NC4=O)cc3)no2)cc1 [Micafungin (sodium)] (X1-[Orn(4R-OH,5R-OH)]T[Hyp][hTyr(3S-OH,4S-OH,3'-OSO3H)][Gln(3R-OH)][Pro(3S-OH,4S-Me)]; lactam 1-C)
Cholesterol-free [1, 3]: 1.036 | Complete [1, 4]: 1.188 | Difference ([1]; complete vs cholesterol-free media, […]): 0.15 | Cholesterol-free media + simvastatin (0.04 μM) [2, 5]: 2.204 | Complete Media [2, 6]: 1.774 | Difference [2, 7]: −0.43

Cc1ccc(C(=O)c2ccc(CC(=O)O)n2C)cc1 [Tolmetin (sodium dihydrate)]
Cholesterol-free [1, 3]: 0.7023 | Complete [1, 4]: 1.262 | Difference [1, 8]: 0.56 | Cholesterol-free media + simvastatin (0.04 μM) [2, 5]: 1.295 | Complete Media [2, 6]: 0.94 | Difference [2, 9]: −0.35

CCOC(=O)C(C)(C)Oc1ccc(Cl)cc1 [Clofibrate]
Difference [1, 10]: −0.12 | Cholesterol-free [1, 11]: 1.138 | Complete [1, 12]: 1.018 | Cholesterol-free media + simvastatin (0.04 μM) [2, 13]: 1.786 | Complete Media [2, 14]: 1.654 | Difference [2, 9]: −0.13

CCN(CC)CC#CCOC(=O)C(O)(c1ccccc1)C1CCCCC1 (stereo not drawn) [Oxybutynin (chloride)]
Cholesterol-free [1, 15]: 1.171 | Complete ([1]; NCI-H292 cells, complete media): 0.8317 | Difference [1, 16]: −0.34 | Cholesterol-free media + simvastatin (0.04 μM) [2, 17]: 1.236 | Complete Media ([2]; drug in complete media): 1.034 | Difference [2, 9]: −0.20

O=C(O)CC(O)(CC(=O)O)C(=O)O
Difference [1, 18]: −0.20 | Cholesterol-free [1, 15]: 1.776 | Complete ([1]; NCI-H292 cells, complete media): 1.574 | Cholesterol-free media + simvastatin (0.04 μM) [2, 19]: 0.864 | Complete Media [2, 20]: 0.9089 | Difference [2, 21]: 0.04

CNCCc1ccccn1.CS(=O)(=O)O.CS(=O)(=O)O [Betahistine (mesylate)]
Cholesterol-free [1, 15]: 1.235 | Complete ([1]; NCI-H292 cells, complete media): 0.8713 | Difference [1, 16]: −0.36 | Cholesterol-free media + simvastatin (0.04 μM) [2, 22]: 1.015 | Complete Media [2, 23]: 1.025 | Difference [2, 24]: 0.01

CN1C(C(=O)Nc2ccccn2)=C(O)c2sccc2S1(=O)=O [Tenoxicam]
Cholesterol-free [1, 15]: 1.354 | Complete ([1]; NCI-H292 cells, complete media): 0.9821 | Difference [1, 16]: −0.37 | Cholesterol-free media + simvastatin (0.04 μM) [2, 13]: 0.6836 | Complete Media [2, 14]: 0.8819 | Difference [2, 21]: 0.20

Oclacitinib (maleate)
Difference [1, 10]: −0.16 | Cholesterol-free [1, 11]: 0.7098 | Complete [1, 12]: 0.5476 | Cholesterol-free media + simvastatin (0.04 μM) [2, 13]: 0.9891 | Complete Media [2, 14]: 0.8445 | Difference [2, 9]: −0.14

COc1ccc2c(c1)N(C[C@H](C)CN(C)C)c1ccccc1S2 [Levomepromazine]
Difference [1, 18]: 0.01 | Cholesterol-free [1, 3]: 0.8962 | Complete [1, 4]: 0.9041 | Cholesterol-free media + simvastatin (0.04 μM) [2, 13]: 0.8554 | Complete Media [2, 14]: 1.084 | Difference [2, 21]: 0.23

CC(=O)OCC(=O)[C@@]1(OC(C)=O)[C@@H](C)C[C@H]2[C@@H]3C[C@H](F)C4=CC(=O)C=C[C@]4(C)[C@@]3(F)[C@@H](O)C[C@@]21C [Diflorasone]
Difference [1, 10]: −0.10 | Cholesterol-free [1, 11]: 0.7536 | Complete [1, 12]: 0.6518 | Cholesterol-free media + simvastatin (0.04 μM) [2, 13]: 0.8775 | Difference [2, 21]: 0.30

COc1ccc(OC)c(C(O)CNC(=O)CN)c1 (stereo not drawn) [Midodrine (hydrochloride)]
Cholesterol-free [1, 3]: 0.6607 | Complete [1, 4]: 0.8643 | Difference [1, 8]: 0.20 | Cholesterol-free media + simvastatin (0.04 μM) [2, 5]: 2.06 | Complete Media [2, 6]: 1.752 | Difference [2, 9]: −0.31

OC(CCN1CCCCC1)(c1ccccc1)C1CC2C=CC1C2 (stereo not drawn) [Biperiden (Hydrochloride)]
Cholesterol-free [1, 3]: 1.12 | Complete [1, 4]: 1.311 | Difference [1, 8]: 0.19 | Cholesterol-free media + simvastatin (0.04 μM) [2, 13]: 0.8257 | Complete Media [2, 14]: 1.742 | Difference [2, 21]: 0.92

CC1=C(C(=O)OCCN(Cc2ccccc2)c2ccccc2)C(c2cccc([N+](=O)[O-])c2)C(P2(=O)OCC(C)(C)CO2)=C(C)N1.CCO.Cl (stereo not drawn)
Difference [1, 10]: −0.15 | Cholesterol-free [1, 11]: 0.9837 | Complete [1, 12]: 0.8325 | Cholesterol-free media + simvastatin (0.04 μM) [2, 13]: 1.113 | Complete Media [2, 14]: 1.012 | Difference [2, 9]: −0.10

COC(=O)N(C)c1c(N)nc(-c2nn(Cc3ccccc3F)c3ncccc23)nc1N [Riociguat]
Difference [1, 18]: −0.22 | Cholesterol-free [1, 15]: 0.9238 | Complete ([1]; NCI-H292 cells, complete media): 0.7003 | Cholesterol-free media + simvastatin (0.04 μM) [2, 19]: 1.101 | Complete Media [2, 20]: 1.185 | Difference [2, 21]: 0.08

Selumetinib (sulfate)
Difference ([1]; Complete minus Cholesterol-free, […]): −0.06 | Cholesterol-free [1, 3]: 0.3932 | Complete [1, 4]: 0.3287 | Cholesterol-free media + simvastatin (0.04 μM) [2, 13]: 0.2941 | Difference [2, 7]: −0.10

CC/C(=C(/CC)c1ccc(O)cc1)c1ccc(O)cc1 [Diethylstilbestrol]
Cholesterol-free [1, 3]: 0.5644 | Complete [1, 4]: 0.9798 | Difference [1, 8]: 0.42 | Cholesterol-free media + simvastatin (0.04 μM) [2, 19]: 0.993 | Complete Media [2, 20]: 1.095 | Difference [2, 21]: 0.10

N#Cc1cc(-c2n[nH]c(-c3ccncc3)n2)ccn1 [Topiroxostat]
Cholesterol-free [1, 3]: 0.764 | Complete [1, 4]: 1.603 | Difference [1, 8]: 0.84 | Cholesterol-free media + simvastatin (0.04 μM) [2, 22]: 1.544 | Complete Media [2, 23]: 1.543 | Difference [2, 24]: 0.00

Nc1ccc(S(=O)(=O)Nc2ncccn2)cc1 [Sulfadiazine (sodium)]
Difference [1, 10]: −0.12 | Cholesterol-free [1, 11]: 1.217 | Complete [1, 12]: 1.095 | Cholesterol-free media + simvastatin (0.04 μM) [2, 17]: 1.234 | Complete Media ([2]; drug in complete media): 0.9756 | Difference [2, 9]: −0.26

CO/N=C(\C(=O)N[C@@H]1C(=O)N2C(C(=O)O)=C(CSc3nnnn3C)CS[C@H]12)c1csc(N)n1 [Cefmenoxime (hydrochloride)]
Difference [1, 18]: −0.30 | Cholesterol-free [1, 15]: 1.225 | Complete ([1]; NCI-H292 cells, complete media): 0.93 | Cholesterol-free media + simvastatin (0.04 μM) [2, 13]: 0.8027 | Complete Media [2, 14]: 0.7093 | Difference [2, 9]: −0.09

Cc1nc(NC(=O)N2CCC[C@H]2C(N)=O)sc1-c1ccnc(C(C)(C)C(F)(F)F)c1 [Alpelisib]
Difference [1, 18]: 0.04 | Cholesterol-free [1, 3]: 0.497 | Complete [1, 4]: 0.5335 | Cholesterol-free media + simvastatin (0.04 μM) [2, 22]: 0.5514 | Complete Media [2, 23]: 0.5502 | Difference [2, 24]: 0.00

Indinavir (sulfate)
Difference ([1]; Complete minus Cholesterol-free, greater than 0 enhanced anti-cancer activity, about 0 neutral, below 0 antagonists): −0.65 | Cholesterol-free ([1]; NCI-H292 cells in cholesterol-free media without statin): 1.599 | Complete ([1]; NCI-H292 cells in complete media): 0.946 | Cholesterol-free media + simvastatin (0.04 μM) [2, 22]: 0.8636 | Difference [2, 24]: 0.01

NC[C@@H]1O[C@H](O[C@H]2[C@@H](O)[C@H](O[C@@H]3[C@@H](O)[C@H](N)C[C@H](N)[C@H]3O[C@H]3O[C@H](CN)[C@@H](O)[C@H](O)[C@H]3N)O[C@@H]2CO)[C@H](N)[C@@H](O)[C@@H]1O.O=S(=O)(O)O [Neomycin (sulfate)]
Difference [1, 10]: −0.17 | Cholesterol-free [1, 11]: 1.592 | Complete [1, 12]: 1.421 | Cholesterol-free media + simvastatin (0.04 μM) [2, 13]: 0.8549 | Complete Media [2, 14]: 1.021 | Difference [2, 21]: 0.17
